Data taken from patent US6350609B1, “Electrospraying for mass fabrication of chips and libraries” (New York University, priority 1997, dated 2002).
“And” between values parts separate entries of the source, which are not always exact repeats. Equal values may be shown once.

Experiments:
Pancreatic RNAse = molecular target: T1, Pancreatic RNAse (Bos taurus, UniProt P61823); assay: Mechano-chemical effect of a specific ligand on cross-linked protein film (isometric tension); type: biochemical; settings: ligand 5-10 times binding constant
T1 construct: purchased Sigma, St. Louis
T1 sequence (P61823 27-150): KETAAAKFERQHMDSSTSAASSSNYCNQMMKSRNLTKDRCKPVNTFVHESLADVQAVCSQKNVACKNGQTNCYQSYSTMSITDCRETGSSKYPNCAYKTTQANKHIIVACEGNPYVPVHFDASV

[1] = molecular target: T2, Alkaline phosphatase (AP) from bovine intestinal mucosa (Bos taurus, UniProt P19111); assay: Effect of AgNO3 added to AP solution on AP activity; type: biochemical; settings: 10^−4 M AgNO3 added to the AP solution
T2 construct: purchased Sigma Chemical Co., St. Louis, Mo; host or cells: bovine intestinal mucosa
Procedure: AP activity was measured immediately after spot extraction by adding 5-20 μL of the extract solution to 1.0 mL of the p-NPP solution in the TRIS/HCl buffer prepared from Sigma Fast tablets. Activity was measured in a room with a thermostat, with a temperature of 25±1° C. […] The specific activity was calculated using protein concentration measured gravimetrically, as described above in the mass measurement section.
It is believed, therefore, that the inactivation of AP at high voltages and currents occur outside the capillary as a result of reaction with the products of corona discharge or as the result of impact with the target electrode. Impact energy should grow with an increase of the potential, causing protein distraction on impact. This can explain the increase in AP inactivation with increasing voltage and current. The generation of corona products in electrospray deposition at I>200-300 nA was noticeable from a characteristic smell of ozone in the electrospray chamber. […] The capillary with the external electrode supports corona discharge more readily than the capillary with the internal electrode, which explains why AP is inactivated at lower currents and to a higher extent when electrospray deposited from the capillary with the external electrode.

Pancreatic Trypsin = assay: Mechano-chemical effect of a specific ligand on cross-linked protein film (isometric tension); type: biochemical; settings: ligand concentration 5-10 times binding constant; for Effect in Dried Sample % (relative change in isometric tension in protein film induced by binding of specific ligand): conventional drying on glass
Avidin = Avidin (Gallus gallus, UniProt P02701); assay: as above; type: biochemical; settings: ligand 5-10 times binding constant
α-Lactalburnin = assay: as above; type: biochemical
Description: Using protein as an example of a biomolecule for electrospray deposition, the structure of the protein film and the functional properties of the protein molecules in the film is dependent on the path of flight of the electrospray, speed of the charged particles controlled by voltage, sign of the charges, humidity and temperature under which the protein molecules are electrosprayed, protein concentration in solution, and presence of stabilizers. At short distances, e.g., about 15 mm between capillary and substrate, or when the electrospray takes place in a humid atmosphere (relative humidity of more than 70-80%), charged microdroplets from the electrospray can reach the surface without decay or the production of dry ions, i.e., in the wet electrospray regime. The sample films obtained after evaporation of the deposited microdroplets on the substrate have much in common with the sample protein films obtained conventionally by applying a protein solution directly to the substrate and allowing the proteins to dry.

[2] = molecular target: T3, 3-phosphoglycerate kinase (yeast) (Saccharomyces cerevisiae, UniProt P00560); assay: as above; type: biochemical; settings: cross-linked 3-phosphoglycerate kinase (yeast) film, ligand 5-10 times binding constant
T3 sequence (P00560 1-416): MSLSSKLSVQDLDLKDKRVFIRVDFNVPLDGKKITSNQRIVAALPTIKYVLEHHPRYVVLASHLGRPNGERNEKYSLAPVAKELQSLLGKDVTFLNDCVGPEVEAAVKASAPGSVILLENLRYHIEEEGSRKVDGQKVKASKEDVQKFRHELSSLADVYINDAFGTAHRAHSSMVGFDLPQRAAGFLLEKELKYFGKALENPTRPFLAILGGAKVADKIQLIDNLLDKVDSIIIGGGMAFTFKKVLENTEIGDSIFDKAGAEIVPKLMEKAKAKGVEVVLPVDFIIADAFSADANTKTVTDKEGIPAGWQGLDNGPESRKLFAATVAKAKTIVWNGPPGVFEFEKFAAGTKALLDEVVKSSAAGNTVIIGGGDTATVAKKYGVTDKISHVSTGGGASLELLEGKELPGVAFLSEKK

Lysozyme (egg) = Lysozyme (egg) (Gallus gallus, UniProt P00698); assay: as above; type: biochemical; settings: ligand 5-10 times binding constant
[3] = molecular target: T4, Alcohol dehydrogenase (horse liver) (Equus caballus, UniProt P00327); assay: as above; type: biochemical; settings: 0.4 mM NADH solution
T4 construct: purchased Sigma, St. Louis, Mo; host or cells: horse liver
Procedure: A film of horse liver alcohol dehydrogenase (LADH, Sigma, St. Louis, Mo., shown in FIG. 14B, was fabricated on an Al electrode covered with a sublayer consisting of 95% of the sodium salt of alginic acid (Sigma, St. Louis, Mo.) and 5 of Triton X-100 detergent. The LADH solution containing 5 mg/ml of protein and 1.5 mg/ml of sucrose was electrosprayed in dry air at +4.3 kV and 30-40 nA from a capillary placed about 15 mm over the substrate. The deposited film was cross-linked for 8 minutes with the vapor from 25% glutaraldehyde at 28° C. The samples were then tested for their ability to change isometric tension in response to 0.4 mM NADH solution.

[4] = test system: goat antibody against human serum albumin; assay: microELISA of electrospray-deposited protein antigens on IMMOBILON-P filter; type: binding; settings: primary antibody against human serum albumin 1:1000, AP-labeled secondary antibody 1:3000
Procedure: Different antigens (serum albumins from human and ox, ovalbumin and human hemoglobin) were electrospray deposited onto a wetted IMMOBILON-P membrane filter through a mask having multiple holes. After each deposition of a different protein antigen, the mask was shifted by 1.1 mm. After depositing all four protein antigens, the membrane filter was dried for 15 min. at 37° C. and blocked by soaking in a PBS solution (10 mM sodium phosphate buffer, pH 7.2, 0.9% NaCl) with 0.05% Tween-20, 1% chicken albumin (ovalbumin). […] The filter was then washed twice with PBS buffer for 10 seconds and reacted with a solution of anti-goat IgG antibodies labeled with alkaline phosphatase (Sigma, diluted 1:3000).

peroxidase = assay: Enzyme activity of electrospray-deposited peroxidase on nitrocellulose filter (DAB substrate); type: biochemical; settings: deposited through polypropylene mask onto wetted nitrocellulose filter; DAB staining
Description: The electrospray conditions used in this example were similar to those used in Example 1.
After electrospray, the pattern of deposited enzyme was not visible on the membrane filter surface. However, the patterns of the enzymes did become visible after soaking the peroxidase-deposited membrane filter in a solution of a standard peroxidase substrate (3,3′-diaminobenzidine, abbreviated DAB, and obtained from Sigma, St. Louis, Mo.), resulting in the formation of an insoluble brown colored product of the peroxidase reaction.

Concanavalin A = Concanavalin A (Canavalia ensiformis, UniProt P02866); settings: cross-linked Concanavalin A film, ligand 5-10 times binding constant
Procedure: Protein films were prepared by electrospray for use in a mechanochemical method of assay. A 2 mg/ml concanavalin A (Sigma, St. Louis, Mo.) solution, containing 0.5 mg/ml of glycerol was electrosprayed through a rectangular single hole onto an Al electrode covered with a polymeric conducting sublayer of about 2-5 microns thick. The sublayer was prepared by drying a thin layer of water solution of a mixture of three compounds (polyethylene glycol-8000, poly(anetholesulfonic acid)—Na-salt and Triton X-100), 3%. each. The protein solution was electrosprayed from a capillary tip placed 20 mm over the substrate, with positive voltage of 4.0 kV at the capillary and a current of 33 nA. Deposition was performed in dry air for 10 minutes. After electrospray deposition, the sample was cross-linked for 15 minutes in a vapor of 25% glutaraldehyde (Aldrich Chemical Company, Milwaukee, Wis.) at 25° C. Upon applying a droplet of water on the substrate surface, the sample was floated off the substrate within 5 seconds.

Lysozyme (egg), sequence (P00698 19-147): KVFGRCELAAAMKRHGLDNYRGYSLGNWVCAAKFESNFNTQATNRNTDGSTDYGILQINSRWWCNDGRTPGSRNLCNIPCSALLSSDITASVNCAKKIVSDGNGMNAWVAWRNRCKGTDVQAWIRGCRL
Avidin, sequence (P02701 25-152, species assumed): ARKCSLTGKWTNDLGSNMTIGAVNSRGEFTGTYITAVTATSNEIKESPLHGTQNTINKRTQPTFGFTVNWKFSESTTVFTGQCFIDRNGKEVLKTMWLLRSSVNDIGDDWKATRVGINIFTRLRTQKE
T4 sequence (P00327 whole entry): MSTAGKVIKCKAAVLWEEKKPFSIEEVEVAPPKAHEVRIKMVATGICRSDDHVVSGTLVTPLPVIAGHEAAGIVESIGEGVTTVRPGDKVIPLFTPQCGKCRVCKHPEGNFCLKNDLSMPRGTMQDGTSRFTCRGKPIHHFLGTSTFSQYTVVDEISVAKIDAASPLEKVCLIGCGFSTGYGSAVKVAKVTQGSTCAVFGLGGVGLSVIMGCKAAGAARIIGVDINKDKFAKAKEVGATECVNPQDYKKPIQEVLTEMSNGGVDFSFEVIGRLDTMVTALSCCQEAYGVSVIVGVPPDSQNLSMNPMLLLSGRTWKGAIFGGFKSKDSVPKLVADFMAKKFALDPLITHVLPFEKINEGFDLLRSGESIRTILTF
T2 sequence (P19111 20-506): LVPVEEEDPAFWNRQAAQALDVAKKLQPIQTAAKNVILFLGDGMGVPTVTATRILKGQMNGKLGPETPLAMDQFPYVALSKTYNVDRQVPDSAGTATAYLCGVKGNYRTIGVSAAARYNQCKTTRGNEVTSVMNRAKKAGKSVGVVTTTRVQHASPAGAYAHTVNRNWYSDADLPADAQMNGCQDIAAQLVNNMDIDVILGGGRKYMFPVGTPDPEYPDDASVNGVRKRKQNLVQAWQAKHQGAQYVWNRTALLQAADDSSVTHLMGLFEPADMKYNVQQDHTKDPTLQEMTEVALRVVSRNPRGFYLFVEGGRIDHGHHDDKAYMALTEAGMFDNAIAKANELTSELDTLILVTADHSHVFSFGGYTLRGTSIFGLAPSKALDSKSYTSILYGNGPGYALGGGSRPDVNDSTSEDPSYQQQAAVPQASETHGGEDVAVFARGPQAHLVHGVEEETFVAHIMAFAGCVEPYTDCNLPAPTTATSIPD

With `Nc1ccn([C@@H]2O[C@H](CO)[C@@H](OP(=O)(O)O)[C@H]2O)c(=O)n1` [3′-Cytidine monophosphate] as the molecule, how does the “Effect in Dried Sample % (relative change in isometric tension)” value (Pancreatic RNAse; conventional drying on glass) read?
The value was “+4.0%”.

What about the “Effect in Electrospray Deposit Sample % (relative change in isometric tension)” value (Pancreatic RNAse; electrospray deposited) of the same molecule?
Its value is −3.4%.

With `O=[N+]([O-])[O-].[Ag+]` [AgNO3] as the molecule, how does the “inhibition of AP” value [1] read?
Its value is “does not result in any inhibition”.

With `CCOC(=O)[C@H](CCCN=C(N)N)NC(=O)c1ccccc1` [BAEE] as the molecule, how does the “Effect in Dried Sample % (relative change in isometric tension in protein film induced by binding of specific ligand)” value (Pancreatic Trypsin) read?
Its value is “+23%”.

Which results are given for `O=C(O)CCCC[C@@H]1SC[C@@H]2NC(=O)N[C@@H]21` [Biotin]?
Effect in Dried Sample % (relative change in isometric tension) (Avidin; conventional drying on glass): −51%; Effect in Electrospray Deposit Sample % (relative change in isometric tension) (Avidin; electrospray deposited): −41% and −48%

What does the source list for `[Ca+2]` [Ca^+2]?
Effect in Dried Sample % (relative change in isometric tension) (α-Lactalburnin; cross-linked α-Lactalburnin film, conventional drying on glass, ligand 5-10 times binding constant): +240%; Effect in Electrospray Deposit Sample % (relative change in isometric tension) (α-Lactalburnin; cross-linked α-Lactalburnin film, electrospray deposited, ligand 5-10 times binding constant): +370%; difference in mechanochemical response to ligand between wet electrospray deposited and conventionally prepared films (α-Lactalburnin; α-lactalbumin films, wet electrospray deposition onto glass covered with conducting SnO2 layer): No notable difference

For `Nc1ncnc2c1ncn2[C@@H]1O[C@H](COP(=O)(O)OP(=O)([O-])OP(=O)([O-])O)[C@@H](O)[C@H]1O.[Mg+2]` [Mg-ATP], which “Effect in Dried Sample % (relative change in isometric tension)” value ([2]; conventional drying on glass) is on record?
The value was “+13%”.

What about the “Effect in Electrospray Deposit Sample % (relative change in isometric tension)” value ([2]; electrospray deposited) of the same molecule?
Its value is “+16%”.

For `CC(=O)N[C@H]1C(O)O[C@H](CO)[C@@H](O)[C@@H]1O` (stereo partly drawn) [N-acetyl-D-glucosamine], which “Effect in Dried Sample % (relative change in isometric tension)” value (Lysozyme (egg); conventional drying on glass) is on record?
Its value is −7.7% and −8.7%.

What about the “Effect in Electrospray Deposit Sample % (relative change in isometric tension)” value (Lysozyme (egg); electrospray deposited) of the same molecule?
The value was −6.3% and −3.5%.

How did the “ligand-induced increase in isometric tension” value ([3]; conventionally prepared LADH film) turn out when `NC(=O)C1=CN([C@@H]2O[C@H](COP(=O)(O)OP(=O)(O)OC[C@H]3O[C@@H](n4cnc5c(N)ncnc54)[C@H](O)[C@@H]3O)[C@@H](O)[C@H]2O)C=CC1` [NADH] was run?
Its value is 6-7%.

And the “ligand-induced increase in isometric tension” value ([3]; electrospray deposited LADH film, glutaraldehyde cross-linked)?
The value was 6-7%.

How did the “Effect in Dried Sample % (relative change in isometric tension in protein film induced by binding of specific ligand)” value (Pancreatic Trypsin) turn out when `Nc1ccc2cc3ccc(N)cc3nc2c1` [Proflavin] was run?
Its value is “+69%”.

And the “Effect in Electrospray Deposit Sample % (relative change in isometric tension in protein film induced by binding of specific ligand)” value (Pancreatic Trypsin; electrospray deposited)?
The value was “+72; +72%”.

How did the “spot intensity in microELISA” value [4] turn out when “bovine albumin: serum albumin from ox, antigen electrospray deposited onto filter” was run?
Its value is “less intensively colored”.

Which “spot intensity in microELISA” value [4] does the source give for “human hemoglobin: protein antigen electrospray deposited onto IMMOBILON-P filter” here?
Its value is “less intensively colored”.

“peroxidase: commercially available peroxidase (Sigma), electrospray deposited; horseradish peroxidase per b108” was tested. Which “enzymatic activity after electrospray deposition” value (peroxidase) did it give?
Its value is “retained”.

With α-D-mannopyranoside as the molecule, how does the “Effect in Dried Sample % (relative change in isometric tension)” value (Concanavalin A; conventional drying on glass) read?
The value was “+11%”.

And the “Effect in Electrospray Deposit Sample % (relative change in isometric tension)” value (Concanavalin A; electrospray deposited)?
Its value is “+4%”.

B1: ovalbumin: protein antigen electrospray deposited onto IMMOBILON-P filter (protein, UniProt P01012 2-386, looked up)
Ovalbumin: GSIGAASMEFCFDVFKELKVHHANENIFYCPIAIMSALAMVYLGAKDSTRTQINKVVRFDKLPGFGDSIEAQCGTSVNVHSSLRDILNQITKPNDVYSFSLASRLYAEERYPILPEYLQCVKELYRGGLEPINFQTAADQARELINSWVESQTNGIIRNVLQPSSVDSQTAMVLVNAIVFKGLWEKAFKDEDTQAMPFRVTEQESKPVQMMYQIGLFRVASMASEKMKILELPFASGTMSMLVLLPDEVSGLEQLESIINFEKLTEWTSSNVMEERKIKVYLPRMKMEEKYNLTSVLMAMGITDVFSSSANLSGISSAESLKISQAVHAAHAEINEAGREVVGSAEAGVDAASVSEEFRADHPFLFCIKHIATNAVLFFGRCVSP
With B1 as the molecule, how does the “spot intensity in microELISA” value [4] read?
Its value is “not visible at all”.
